The test system of experiment [1] is adult hippocampus-derived neural progenitor cells. Description: in vitro differentiation analysis of neural progenitor cells (immunocytochemistry for lineage markers). It counts as cell-based, rat. As to the method: The neural progenitor cells isolated from the hippocampus of female Fischer 344 used in this study have been characterized previously (Gage et al., 1995; Palmer et al., 1997). The whole brain-derived neural stem cells from PIO ICR mice were isolated and cultured according to the methods as described, with slight modifications. Cells were cultured as previously described (Gage et al., 1995; Ray et al., 1993). Cells between passages 10 and 20 were used for in vitro differentiation analyses. To induce differentiation, cells were plated into 4-well chamber slides at a density of 55,000-75,000 cells per well and were allowed to proliferate in N2-supplemented (Invitrogen) DMEM:F12 (Omega Scientific) medium containing 20 ng/ml FGF-2 (PeproTech, Inc.) for 24 hours. FGF-2 was then withdrawn and cells were subsequently treated with differentiation media. […] For IGF-induction experiments, cells were trypsinized, washed with 1× PBS, and plated into insulin-free N2 medium. […] In some cultures, BrdU (2.5 μM, Sigma) was added to label dividing cells, and Q-VD-OPh (2 μM, Enzyme Systems Products) was added to prevent apoptosis.
Cells were fixed with 4% paraformaldehyde, followed by immunocytochemical staining as described (Palmer et al., 1999). Labeled cells were visualized using a Nikon E800 upright microscope or a Nikon E600 inverted microscope (Nikon Inc.) and a Spot RT CCD camera (Diagnostic Instruments Inc.). 4′,6-diamidino-2-phenylindole (DAPI) was used to identify individual cells. Quantification of cell phenotypes was with StereoInvestigator (MicroBrightfield Inc.); for each marker, 500-1000 cells were sampled systematically from standardized fields at 40×magnification. For quantification of live/dead cells, images were taken of cultures live-stained with propidum iodide (1 μg/ml; Molecular Probes) and Hoescht 33342 (1 μg/ml; Sigma) at 10×magnification, and cells were counted using Image-Pro (Media Cybernetics). The following primary antibodies were used: rabbit anti-Tuj1 (1:7500;Covance), mouse anti-RIP (1:25-1:75; Hybridoma Bank); guinea pig anti-GFAP (1:500-1:2500; Advanced Immunochemical, Inc.); rabbit anti-MBP (1:500; Chemicon International Inc.), rat anti-BrdU (1:400; Accurate). Secondary antibodies were all from Jackson ImmunoResearch and used at 1:250 dilution. The detection of BrdU in cultured cells required treatment in 2 N HCL at 37° C. for 30 min (Palmer et al., 1999). All experiments were independently replicated at least 3 times.

Experiment [2] relates to oligodendrocytes in the hilus of the adult rat hippocampus. Description: IGF-I overexpression in vivo in the hippocampus (hilus), immunohistochemistry. The note with it: 4 weeks after injection. On the procedure:
cDNA encoding the human IGF-I gene was cloned into a recombinant AAV vector and the virus was prepared as previously described (Kaspar et al., 2002). Expression of IGF-I and {overscore (β)}gal (control AAV) was first confirmed in human embryonic kidney (HEK-293) cells by RT-PCR and Western analysis and subsequently in the hippocampus by RT-PCR analysis (unpublished data). Recombinant AAV-IGF-I (rAAV-IGF-I) or AAV-{overscore (β)}gal (rAAV-{overscore (β)}gal) was stereotaxically injected into the hippocampus (anteroposterior axis, −4.0 mm; mediolateral axis, +2.0 mm; dorsoventral axis, −3.0 from skull, with nose bar at 3.3 mm up) of anesthetized female Fischer-344 rats (150-175 g; n=6). […]
All comparative analyses were focused on the hilus of the injected side on matched hippocampal sections. For RIP or MBP staining, immunofluorescence average pixel intensity of equivalent sized fields (4 from each animal) in control and experimental groups was determined from digital images using Adobe Photoshop. To quantify the number of oligodendrocytes, sections were immunostained with GST-π. Only immunolabeled cells with a clear DAPI-positive nucleus were scored. For quantification of GST-π cells, area counts of the hilus within the dentate gyrus of the hippocampus were performed. […] The results are expressed as the average number of cells per section.

Turning to “IGF-I: human recombinant IGF-I (R&D Systems), growth factor polypeptide”, the “RIP+ cells” value in experiment [1] (500 ng/ml IGF-1 added to Q-VD-OPh-treated 2-day cultures) is “large increase in RIP+ cells”. Also, in experiment [1] (500 ng/ml IGF-I, 4-day time point), the “total cells positive for myelin basic protein (MBP)” value was “Approximately 23%”. Also, the “overall number of RIP+ cells over time” value in experiment [1] (500 ng/ml IGF-I, 12 h to 48 h) is recorded as “progressive increase in the overall number of RIP+ cells over time”. In experiment [1] (500 ng/ml, 4 days, insulin-free N2 medium), the “percentage of RIP+ cells” value was 45-55%. Moreover, in experiment [1] (20-500 ng/ml, 4-day cultures), the “dose dependence of oligodendrocyte differentiation” value is listed as “occurred in a dose-dependent manner” and the “percentage of Tuj1-positive cells across tested concentrations” value is listed as “did not appear to change”. Also, the “rank order of potency for oligodendrocyte differentiation” value in experiment [1] (different concentrations (20-1000 ng/ml)) was “IGF-I>IGF-II>insulin”. Further, in experiment [1] (each at 500 ng/ml, 4 days), the “GFAP+ astrocytes” value is listed as “few to no GFAP+ astrocytes”. Also, in experiment [1] (independently derived rat hippocampus progenitor cell line and clonally derived line (unpublished data)), the “oligodendrocyte-promoting effects in other rat lines” value is given as “confirmed”. For the same substance, in experiment [2], the “GFAP staining vs control animals” value was “no observable difference in GFAP staining”.

Source of the values: patent US20050148069A1, “IGF-1 instructs multipotent adult CNS neural stem cells to an oligodendroglial lineage” (priority 2003, published 2005).
